Our source for the AC50 values is patent US20230365592A1 (Agios Pharmaceuticals, Inc., priority 2022, published 2023).

Each structure is given as a SMILES string.

The target of the first assay is T1, human PAH with the R408W mutation (Homo sapiens, UniProt P00439, R408W).
T1 construct: expressed in transfected cells
T1 sequence (P00439 1-452 R408W): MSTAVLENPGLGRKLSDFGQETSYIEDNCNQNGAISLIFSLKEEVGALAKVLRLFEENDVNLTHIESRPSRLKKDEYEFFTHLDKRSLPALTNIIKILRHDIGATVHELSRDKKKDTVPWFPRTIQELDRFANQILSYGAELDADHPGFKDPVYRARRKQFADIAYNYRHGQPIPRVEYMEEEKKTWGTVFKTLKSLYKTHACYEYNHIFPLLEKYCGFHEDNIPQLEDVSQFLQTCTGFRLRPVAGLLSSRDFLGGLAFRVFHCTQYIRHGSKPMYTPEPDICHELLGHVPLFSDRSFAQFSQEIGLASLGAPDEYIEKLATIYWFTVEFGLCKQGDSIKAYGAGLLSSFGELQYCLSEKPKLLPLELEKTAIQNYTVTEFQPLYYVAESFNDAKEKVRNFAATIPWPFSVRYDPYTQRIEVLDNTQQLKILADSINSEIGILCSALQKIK
The assay is described as follows: Cell Based Phenylalanine Flux Assay.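 Also: after compound treatment, cells received sepiapterin plus isotope-labelled Phenylalanine for 4 hours, then labelled Tyrosine in the medium was quantified, 10-point 2-fold dilution series run in duplicate.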 The following applies: A375 cells expressing R408W PAH; 24 hrs with compound, then 20 µM sepiapterin and 800 µM 13C9,15N-Phenylalanine for 4 hours; 13C-Tyrosine by LC-MS; average where tested multiple times; read-out: AC50.
As usually defined, the AC50 is the midpoint of the concentration-response curve, whichever way the signal moves. As to `O=C(c1nnc(CCN2CC(F)C2)o1)N1CCc2[nH]cnc2C1c1cc2ccccn2n1` (stereo not drawn) [2-[2-(3-fluoroazetidin-1-yl)ethyl]-5-(4-{pyrazolo[1,5-a]pyridin-2-yl}-1H,4H,5H,6H,7H-imidazo[4,5-c]pyridine-5-carbonyl)-1,3,4-oxadiazole], the AC50 was greater than 5 µM. On the same count and under the same terms, under `O=C(c1nc2ccccc2s1)N1CCc2[nH]cnc2C1c1cc2c(C(F)(F)F)cccn2n1` (stereo not drawn) stands 1 to 5 µM; under `Cc1cccc2cc(C3c4nc[nH]c4CCN3c3nnc(-c4cnccn4)o3)nn12` (stereo not drawn), greater than 5 µM. For `Cc1cccn2nc(C3c4nc[nH]c4CCN3c3nnc(C(C)(C)F)o3)cc12` (stereo not drawn), the AC50 was greater than 5 µM.

On to `Cc1ncoc1C(=O)N1CC2(CC2)c2[nH]cnc2C1c1cc2ccccn2n1` (stereo not drawn), for which the AC50 lay within 1 to 5 µM. The same measure, in the same setting: for `Cc1nc(C(=O)N2CCc3[nH]cnc3C2c2cc3c(F)cccn3n2)n(C)n1` (stereo not drawn) the value was 1 to 5 µM.

The assay is the same for the next values; noted with them: A375 cells expressing human PAH R408W; 24 hrs compound incubation; 13C-Tyrosine by LC-MS; average where tested multiple times; read-out: AC50.
For `CC(C)c1cccn2nc([C@@H]3c4nc[nH]c4CCN3C(=O)c3nnc(-c4ccn(C(F)(F)F)n4)o3)cc12` [Example 1984, (S)-(4-(4-isopropylpyrazolo[1,5-a]pyridin-2-yl)-1,4,6,7-tetrahydro-5H-imidazo[4,5-c]pyridin-5-yl)(5-(1-(trifluoromethyl)-1H-pyrazol-3-yl)-1,3,4-oxadiazol-2-yl)methanone], the half-maximal activity concentration (AC50) is less than 0.5 µM. On the same count and under the same terms, under `FC(F)(F)c1cnc(N2CCc3[nH]cnc3[C@H]2c2cc3c(C4CC4)cccn3n2)nc1` [Example 2174, (S)-4-(4-cyclopropylpyrazolo[1,5-a]pyridin-2-yl)-5-(5-(trifluoromethyl)pyrimidin-2-yl)-4,5,6,7-tetrahydro-1H-imidazo[4,5-c]pyridine] stands less than 0.5 µM; under `Fc1cccc(N2CCc3[nH]cnc3[C@H]2c2cc3c(F)cccn3n2)n1` [Example 1955, (S)-4-(4-fluoropyrazolo[1,5-a]pyridin-2-yl)-5-(6-fluoropyridin-2-yl)-4,5,6,7-tetrahydro-1H-imidazo[4,5-c]pyridine], less than 0.5 µM. Still for that read-out and setting: under `FC(F)Oc1cccn2nc([C@@H]3c4nc[nH]c4CCN3c3nnc(C4CC4)o3)cc12` [Example 2509, (S)-2-cyclopropyl-5-(4-(4-(difluoromethoxy)pyrazolo[1,5-a]pyridin-2-yl)-1,4,6,7-tetrahydro-5H-imidazo[4,5-c]pyridin-5-yl)-1,3,4-oxadiazole] stands 1 to 5 µM. The same measure, in the same setting: for `O=C(c1ocnc1C1CC1)N1CCc2[nH]cnc2[C@@H]1c1cc2c(F)cccn2n1` [Example 1987, (R)-(4-cyclopropyloxazol-5-yl)(4-(4-fluoropyrazolo[1,5-a]pyridin-2-yl)-1,4,6,7-tetrahydro-5H-imidazo[4,5-c]pyridin-5-yl)methanone] the value was 1 to 5 µM; for `CC(C)c1cccn2nc([C@H]3c4nc[nH]c4CCN3c3nnc(-c4cccnc4)o3)cc12` [Example 2260, (R)-2-(4-(4-isopropylpyrazolo[1,5-a]pyridin-2-yl)-1,4,6,7-tetrahydro-5H-imidazo[4,5-c]pyridin-5-yl)-5-(pyridin-3-yl)-1,3,4-oxadiazole], greater than 5 µM; for `O=C(c1ocnc1C1CC1)N1CCc2[nH]cnc2[C@@H]1c1cc2cccc(C(F)F)n2n1` [Example 2113, (R)-(4-cyclopropyloxazol-5-yl)(4-(7-(difluoromethyl)pyrazolo[1,5-a]pyridin-2-yl)-1,4,6,7-tetrahydro-5H-imidazo[4,5-c]pyridin-5-yl)methanone], greater than 5 µM. With `Cc1cccn2nc([C@@H]3c4nc[nH]c4CCN3C(=O)c3nnc(-c4cnn(C)c4)s3)cc12` [Example 2047, (S)-(5-(1-methyl-1H-pyrazol-4-yl)-1,3,4-thiadiazol-2-yl)(4-(4-methylpyrazolo[1,5-a]pyridin-2-yl)-1,4,6,7-tetrahydro-5H-imidazo[4,5-c]pyridin-5-yl)methanone], the AC50 is 0.5 to 1 µM. The same measure, in the same setting: under `Cc1cccn2nc([C@H]3c4nc[nH]c4CCN3c3ccccn3)cc12` [Example 2126, (R)-4-(4-methylpyrazolo[1,5-a]pyridin-2-yl)-5-(pyridin-2-yl)-4,5,6,7-tetrahydro-1H-imidazo[4,5-c]pyridine] stands greater than 5 µM; under `CC(C)c1cccn2nc([C@H]3c4nc[nH]c4CCN3C(=O)c3nnc(-c4cnn(C)c4)o3)cc12` [Example 1887, (R)-(4-(4-isopropylpyrazolo[1,5-a]pyridin-2-yl)-1,4,6,7-tetrahydro-5H-imidazo[4,5-c]pyridin-5-yl)(5-(1-methyl-1H-pyrazol-4-yl)-1,3,4-oxadiazol-2-yl)methanone], greater than 5 µM. In the case of `FC(F)c1nnc(N2CCc3[nH]cnc3[C@H]2c2cc3ccccn3n2)o1` [Example 2461, (S)-2-(difluoromethyl)-5-(4-(pyrazolo[1,5-a]pyridin-2-yl)-6,7-dihydro-1H-imidazo[4,5-c]pyridin-5(4H)-yl)-1,3,4-oxadiazole], the AC50 lay in the range of 1 to 5 µM. The same measure, in the same setting: under `CCc1cccn2nc([C@H]3c4nc[nH]c4CCN3C(=O)c3nnc(-c4ccccn4)o3)cc12` [Example 1894, (R)-(4-(4-ethylpyrazolo[1,5-a]pyridin-2-yl)-1,4,6,7-tetrahydro-5H-imidazo[4,5-c]pyridin-5-yl)(5-(pyridin-2-yl)-1,3,4-oxadiazol-2-yl)methanone] stands greater than 5 µM; under `FC(F)Oc1cccn2nc([C@@H]3c4nc[nH]c4CCN3c3ncccn3)cc12` [Example 2254, (S)-4-(4-(difluoromethoxy)pyrazolo[1,5-a]pyridin-2-yl)-5-(pyrimidin-2-yl)-4,5,6,7-tetrahydro-1H-imidazo[4,5-c]pyridine], less than 0.5 µM; under `Fc1cccc(F)c1-c1nnc(N2CCc3[nH]cnc3[C@H]2c2cc3cccc(C(F)F)n3n2)o1` [Example 2093, (S)-2-(4-(7-(difluoromethyl)pyrazolo[1,5-a]pyridin-2-yl)-1,4,6,7-tetrahydro-5H-imidazo[4,5-c]pyridin-5-yl)-5-(2,6-difluorophenyl)-1,3,4-oxadiazole], less than 0.5 µM.

For `FC(F)(F)c1nnc(N2CCc3[nH]cnc3[C@H]2c2cc3cccc(Cl)n3n2)o1` [Example 2493, (S)-2-(4-(7-chloropyrazolo[1,5-a]pyridin-2-yl)-1,4,6,7-tetrahydro-5H-imidazo[4,5-c]pyridin-5-yl)-5-(trifluoromethyl)-1,3,4-oxadiazole], the concentration at half-maximal activity (AC50) lay within 1 to 5 µM.

Staying with this assay, now noted: A375 cells expressing human R408W PAH; 24 hrs compound incubation; 13C-Tyrosine by LC-MS; average where tested multiple times; read-out: AC50.
For `N#Cc1ncoc1C(=O)N1CCc2[nH]cnc2[C@H]1c1cc2ccc(Br)cn2n1` [Example 682, (S)-5-(4-(6-bromopyrazolo[1,5-a]pyridin-2-yl)-4,5,6,7-tetrahydro-1H-imidazo[4,5-c]pyridine-5-carbonyl)oxazole-4-carbonitrile], the AC50 was 0.5 to 1 µM. Turning to `Cn1ncnc1C(=O)N1CCc2[nH]cnc2[C@H]1c1cc2c(C(F)(F)F)cccn2n1` [Example 1044, (S)-(1-methyl-1H-1,2,4-triazol-5-yl)(4-(4-(trifluoromethyl)pyrazolo[1,5-a]pyridin-2-yl)-6,7-dihydro-1H-imidazo[4,5-c]pyridin-5(4H)-yl)methanone], the AC50 is less than 0.5 µM. Same read-out and setting: under `COc1ccc(-c2nnc(C(=O)N3CCc4[nH]cnc4[C@@H]3c3cc4cccc(C)n4n3)o2)nc1` [Example 911, (R)-(5-(5-methoxypyridin-2-yl)-1,3,4-oxadiazol-2-yl)(4-(7-methylpyrazolo[1,5-a]pyridin-2-yl)-6,7-dihydro-1H-imidazo[4,5-c]pyridin-5(4H)-yl)methanone] stands greater than 5 µM.
